For data set [1], the target named is T1, Xanthine dehydrogenase/oxidase (Bos taurus, UniProt P80457). To be noted: cattle.
Data set [2] is described as follows: Inhibition of horse liver recombinant thymidine phosphorylase. Set-up: species or system Equus caballus.
Data set [3] deals with T1, Xanthine dehydrogenase/oxidase. As to the kind of experiment: Inhibition of bovine xanthine oxidase using hypoxanthine as a substrate.
Data set [4] has the same target. As to the kind of experiment: Inhibition of bovine xanthine oxidase using xanthine as a substrate.

Structures are written as SMILES.

T1 sequence (P80457 whole entry): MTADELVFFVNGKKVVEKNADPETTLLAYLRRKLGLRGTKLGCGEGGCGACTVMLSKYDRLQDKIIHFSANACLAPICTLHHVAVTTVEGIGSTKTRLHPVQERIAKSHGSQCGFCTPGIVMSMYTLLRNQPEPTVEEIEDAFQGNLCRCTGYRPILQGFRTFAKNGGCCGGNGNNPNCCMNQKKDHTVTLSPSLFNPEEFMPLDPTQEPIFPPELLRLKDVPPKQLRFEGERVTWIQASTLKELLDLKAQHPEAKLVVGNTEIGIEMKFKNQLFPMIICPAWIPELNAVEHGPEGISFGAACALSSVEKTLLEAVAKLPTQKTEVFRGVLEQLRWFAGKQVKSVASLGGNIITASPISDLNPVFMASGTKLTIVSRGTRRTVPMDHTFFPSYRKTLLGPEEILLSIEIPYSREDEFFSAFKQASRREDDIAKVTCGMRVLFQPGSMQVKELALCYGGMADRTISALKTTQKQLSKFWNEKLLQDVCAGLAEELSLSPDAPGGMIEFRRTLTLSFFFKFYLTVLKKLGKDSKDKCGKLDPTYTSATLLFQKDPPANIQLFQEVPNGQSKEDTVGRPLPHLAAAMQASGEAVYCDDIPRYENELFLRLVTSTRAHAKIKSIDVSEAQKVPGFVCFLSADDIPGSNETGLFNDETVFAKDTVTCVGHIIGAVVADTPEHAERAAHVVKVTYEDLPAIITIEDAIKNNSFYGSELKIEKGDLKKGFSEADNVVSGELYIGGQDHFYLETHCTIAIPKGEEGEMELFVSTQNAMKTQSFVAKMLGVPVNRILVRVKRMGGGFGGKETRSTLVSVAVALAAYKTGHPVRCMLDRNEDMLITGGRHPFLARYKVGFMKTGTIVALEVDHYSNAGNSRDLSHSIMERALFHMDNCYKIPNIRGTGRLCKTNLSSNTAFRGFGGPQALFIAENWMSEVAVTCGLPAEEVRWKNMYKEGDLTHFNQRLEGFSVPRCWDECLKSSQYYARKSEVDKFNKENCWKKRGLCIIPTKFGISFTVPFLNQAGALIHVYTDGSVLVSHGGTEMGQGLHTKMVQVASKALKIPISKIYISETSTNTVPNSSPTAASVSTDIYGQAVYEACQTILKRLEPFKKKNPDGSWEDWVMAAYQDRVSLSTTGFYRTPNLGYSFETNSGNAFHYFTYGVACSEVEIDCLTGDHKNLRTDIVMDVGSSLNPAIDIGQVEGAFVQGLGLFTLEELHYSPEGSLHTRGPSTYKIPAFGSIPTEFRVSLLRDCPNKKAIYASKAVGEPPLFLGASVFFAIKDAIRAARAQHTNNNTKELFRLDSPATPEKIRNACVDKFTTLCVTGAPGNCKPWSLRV

In general, Km refers to the concentration of substrate that gives half-maximal velocity. Turning to `Nc1ncncc1Br`, in data set [1], the Km amounted to 44.4 µM.

For `N=C1CCCN1Cc1nc[nH]c(=O)c1Cl`, the Km in data set [1] was determined as 64.9 µM.

Regarding `Nc1[nH]c(=O)ncc1Br`, the Km in data set [1] turned out to be 32.5 µM.

As for `O=c1[nH]cnc2[nH]ccc12`, in data set [1], the Michaelis constant (Km) stood at 45.1 µM.

For the molecule `O=c1ncc2cc[nH]c2[nH]1`, in data set [1], the Michaelis-Menten constant (Km) is 29.8 µM.

As for `Nc1nc[nH]c(=O)c1Br`, the Michaelis-Menten constant (Km) in data set [1] was found to be 23.8 µM.

In general, IC50 refers to the concentration that gives 50% inhibition. Consider `Nc1[nH]c(=O)[nH]c(=O)c1Br`, for which, in data set [2], the half-maximal inhibitory concentration (IC50) came to 30 µM.

What is called Ki is the equilibrium dissociation constant of an inhibitor or competing ligand from its target. Lower therefore signals a stronger hold on the target. For the molecule `O=c1[nH]c(=O)c2cc[nH]c2[nH]1` [7-DEAZAXANTHINE], the Ki in data set [3] was determined as 25 µM; in data set [4], 70 µM.

For the origin of these results see ChEMBL document CHEMBL1156686, “Xanthine oxidase-activated prodrugs of thymidine phosphorylase inhibitors” (Eur J Med Chem, 2008).
